Laboratory results reported in US20230381141A1, “CONJOINT THERAPIES FOR TREATING VIRAL INFECTIONS” (priority 2022, published 2023).
Where “and” joins values, the source holds several entries; their conditions need not be identical. Equal values may be shown once. Entries after “also recorded” stand apart in the source; their conditions may differ. Read-outs that look alike come from different tables or passages of the source.

Legend:
[1] = system: IFN-β induction in HEK293T cells expressing SARS-CoV-2 PL^pro; type: cell-based
Vero E6 normal cells = details: cited from earlier work
SARS-CoV-2 = details: cited from earlier work; for EC50: read-out: antiviral EC50; for EC90: read-out: antiviral EC90
[2] = biological target: spike protein-ACE2 complex (UniProt P0DTC2+Q9BYF1); details: separate study; cited from earlier work
spike protein-ACE2 complex, sequence (Q9BYF1 18-805, one chain of several): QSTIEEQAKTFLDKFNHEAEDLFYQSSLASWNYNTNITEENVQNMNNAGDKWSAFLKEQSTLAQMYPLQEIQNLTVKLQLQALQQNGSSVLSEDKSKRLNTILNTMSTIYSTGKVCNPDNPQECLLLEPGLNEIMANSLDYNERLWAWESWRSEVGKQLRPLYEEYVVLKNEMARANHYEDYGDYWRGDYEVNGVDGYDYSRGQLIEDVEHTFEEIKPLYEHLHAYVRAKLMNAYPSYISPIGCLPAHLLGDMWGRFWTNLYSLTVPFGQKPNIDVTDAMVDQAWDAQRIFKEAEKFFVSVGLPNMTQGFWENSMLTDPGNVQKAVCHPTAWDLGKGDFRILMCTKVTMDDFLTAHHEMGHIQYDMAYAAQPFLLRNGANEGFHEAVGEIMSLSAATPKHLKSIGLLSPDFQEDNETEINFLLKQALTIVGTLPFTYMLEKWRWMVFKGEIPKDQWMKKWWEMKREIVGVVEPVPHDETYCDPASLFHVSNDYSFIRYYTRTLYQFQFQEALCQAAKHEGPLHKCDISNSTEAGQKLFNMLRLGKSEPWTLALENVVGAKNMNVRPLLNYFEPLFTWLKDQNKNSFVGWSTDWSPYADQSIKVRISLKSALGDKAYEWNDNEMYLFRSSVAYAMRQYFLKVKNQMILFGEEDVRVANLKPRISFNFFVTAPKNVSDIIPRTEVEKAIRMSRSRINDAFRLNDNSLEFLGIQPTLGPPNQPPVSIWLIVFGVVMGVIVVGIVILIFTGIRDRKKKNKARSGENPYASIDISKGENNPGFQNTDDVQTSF

[3] = biological target: PL^pro deubiquitinase activity (Severe acute respiratory syndrome coronavirus 2, UniProt P0DTD1); assay: PL^pro deubiquitinase substrate assay; type: biochemical, SARS-CoV-2
Method: (§1) Briefly, in each assay, the enzyme was loaded into each well in the appropriate buffer, next the compounds were added into the well and incubated for 10-60 min at 37° C. The reaction was initiated by addition of substrate to each well and the fluorescent signal was read for 60 min at the appropriate excitation/emission.
(§2) For the PL^pro and PL^pro deubiquitinase assays, DTT was added to the assay buffer to achieve 1 mM DTT before the assay. A 10 mM stock of compounds was prepared in DMSO, this stock was diluted in assay buffer to achieve a 10× of the desire concentration in the well. Next, the PL^pro and deubiquitinase substrates were diluted to 42 μM and 0.5 μM respectively in the assay buffer. Then, PL^pro enzyme was diluted to 2.5 ng/μL and 6 ng/μL for the PL^pro and deubiquitinase assays respectively in the assay buffer. […] The reaction was started by adding 12.5 μL of the substrate to each well, the reaction was monitored for 1 h at excitation at 360 nm; emission at 460 nm. For the ISG15 substrate, PL^pro enzyme at 0.1 nM was incubated with compounds for lh and the reaction was initiated by adding ISG15-RH110 substrate at 500 nM, the reaction was monitored for 1-hour excitation at 485 nm; emission at 535 nm. […] Following the incubation, 2 μL of substrate at 25 μM was added into the wells and the fluorescent signal (ex/em 380/455 nm) was recorded for 1 h at 37° C.

[4] = biological target: PL^pro ISG15 cleavage activity (Severe acute respiratory syndrome coronavirus 2, UniProt P0DTD1); assay: PL^pro ISG15 substrate (deISGylase) assay; type: biochemical, SARS-CoV-2
Method: as §1, §2

[5] = cited from earlier work
[6] = system: IFN induction (IRF3 reporter); assay: IFN induction assay, IRF3 binding site Firefly luciferase reporter with poly(I:C); type: cell-based
[7] = Plasma drug level in mice by LC-MS/MS; details: C57BL/6, mouse
Method: Following compound administration, mice were euthanized at 2 hours, followed by perfusion.
(§3) Two hours after dosing, mice were anesthetized and blood was collected following transcardial puncture for the isolation of plasma. Mice were then perfused transcardially with saline and brain tissue removed.

[8] = Brain drug level in mice by LC-MS/MS; details: for concentration at 2 h: male, C57BL/6, mouse, brain, po, 30 mg/kg; for brain permeability: pilot PK studies in mice
Description: as §3

SARS-CoV-2 PL^pro = SARS-CoV-2 PL^pro (Severe acute respiratory syndrome coronavirus 2, UniProt P0DTD1); assay: biochemical; details: for inhibition at 50 µM: read-out: inhibition of PL^pro activity in library screening
SARS-CoV-2 M^pro = SARS-CoV-2 M^pro (Severe acute respiratory syndrome coronavirus 2, UniProt P0DTD1); assay: M^pro activity assay, fluorogenic substrate; type: biochemical; details: alone, FIG. 7B
PL^pro = PL^pro (Severe acute respiratory syndrome coronavirus 2, UniProt P0DTD1); details: read-out: reported PL^pro IC50; cited from earlier work
[9] = 1 μM, poly I:C, Wuhan strain PL^pro
[10] = Vero E6 cells infected with SARS-CoV-2
[11] = in combination with DDL-750 or DDL-750/DDL-751, FIG. 2
[12] = po, 30 mg/kg, plasma levels in combination DDL-701+DDL-750, mice, oral gavage 30 mg/kg, combination, FIG. 5
[13] = po, 30 mg/kg, plasma levels, mice, oral gavage 30 mg/kg, given alone, FIG. 5
[14] = male, oral, plasma levels in combination, mice, DDL-701 + DDL-750 both 30 mg/Kg oral, FIG. 9
[15] = male, po, 30 mg/kg, plasma levels, mice, oral 30 mg/Kg, given alone, FIG. 9
[16] = PL^pro peptide substrate, dose response, read-out: IC50 PL^pro inhibition
[17] = SARS-CoV-2 infected VeroE6 cells
[18] = read-out: Cmax in human plasma after oral dosing, oral dosing

SMILES: CC1=NN(c2ccc(C)c(C)c2)C(=O)/C1=N/Nc1cccc(-c2cccc(C(=O)O)c2)c1O [DDL-701, eltrombopag]
- rescue of IFN-β induction in the presence of PL^pro [1, 9]: modestly yet significantly rescued; also recorded: partially restored
- rescue of IFN-β induction in the presence of PL^pro ([1]; higher concentrations than 1 μM): did not rescue induction
- CC50 (Vero E6 normal cells): > 50 µM
- EC50 (SARS-CoV-2; [10]): 8.2 µM
- EC90 (SARS-CoV-2; [10]): 9.5 µM
- EC50 (SARS-CoV-2; Vero cells infected with SARS-CoV-2 (Sangeun J. et al., 2020)): ~8 µM
- effect on spike protein-ACE2 complex [2]: bind and reduce the stability
- IC50 ([3]; deubiquitinase substrate, dose response): 21 µM
- deubiquitinase inhibition in combination [3, 11]: inhibits
- IC50 ([4]; ISG15 substrate, dose response): 8 µM
- ISG15 activity inhibition in combination [4, 11]: inhibits
- AUC ([5]; human, single oral dose of 75 mg, tablet): 168 µg·h/mL
- Cmax ([5]; read-out: plasma Cmax, human, single oral dose of 75 mg, tablet): 25000 to 36000 nM
- Cmax ([5]; read-out: steady state drug level in plasma, Cmax, human, 75 mg tablet, oral dosing, steady state): ~50000 nM
- IFN induction ([6]; at 10 and 1 μM): approximately 1.5 fold over DMSO
- concentration at 2 h [7, 12]: 4 µM
- concentration at 2 h [7, 13]: ~11 µM
- concentration at 2 h [7, 14]: ~4 µM and 1630 ng/mL
- concentration at 2 h [7, 15]: ~14 µM and ~6210 ng/mL
- concentration at 2 h [8]: ~1 µM and ~442 ng/g
- brain penetration relative to nirmatrelvir ([8]; mice, oral 30 mg/Kg, 2 hours): > 5 fold
- brain permeability [8]: brain-permeable
- inhibition of PL^pro by DDL-701 in combination with DDL-750 (SARS-CoV-2 PL^pro; DDL-701/750 at 50 μM/0.1 μM, FIG. 7A): not affected
- inhibition of PL^pro (SARS-CoV-2 PL^pro; DDL-701 alone at 50 μM, FIG. 7A): almost complete
- IC50 (SARS-CoV-2 PL^pro; [16]): 13 µM
- PLpro inhibition in combination (SARS-CoV-2 PL^pro; [11]): inhibits; also recorded: continues to show its inhibition
- inhibition at 50 µM (SARS-CoV-2 PL^pro): > 80%
- activity in M^pro activity assay (SARS-CoV-2 M^pro): did not show activity; also recorded: not M^pro

SMILES: CC1=NN(c2ccc(C)c(C)c2)C(=O)/C1=N/Nc1cccc(-c2cccc(-c3nnn[nH]3)c2)c1O [DDL-713, thrombopoietin receptor agonist-1]
- IC50 (SARS-CoV-2 PL^pro; [16]): ~54 µM
- inhibition at 50 µM (SARS-CoV-2 PL^pro; compounds at 50 μM): > 80%

SMILES: COc1cc(C(=O)NS(=O)(=O)c2ccccc2C)ccc1Cc1cn(C)c2ccc(NC(=O)OC3CCCC3)cc12 [DDL-715, zafirlukast]
- rescue of IFN-β induction in the presence of PL^pro [1, 9]: not
- rescue of IFN-β induction in the presence of PL^pro ([1]; any dose): Neither DDL-715 nor DDL-750 rescued IFN-β induction
- Cmax ([5]; human, in vivo, po): ~500 nM
- IFN induction ([6]; at 10 and 1 μM): approximately 1.5 fold over DMSO
- concentration at 2 h [7, 13]: ~4 µM
- IC50 (SARS-CoV-2 PL^pro): ~24 µM
- inhibition at 50 µM (SARS-CoV-2 PL^pro; compounds at 50 μM): > 80%

SMILES: CC(C)(C)[C@H](NC(=O)C(F)(F)F)C(=O)N1C[C@H]2[C@@H]([C@H]1C(=O)N[C@H](C#N)C[C@@H]1CCNC1=O)C2(C)C [DDL-750, nirmatrelvir]
- rescue of IFN-β induction in the presence of PL^pro [1, 9]: not
- rescue of IFN-β induction in the presence of PL^pro ([1]; any dose): Neither DDL-715 nor DDL-750 rescued IFN-β induction
- CC50 (Vero E6 normal cells): > 100 µM
- EC50 (SARS-CoV-2; [17]): 0.074 µM
- EC90 (SARS-CoV-2; [17]): 0.155 µM
- IFN induction ([6]; at 1 μM): approximately 1.3 fold over DMSO
- concentration at 2 h [7, 12]: 0.1 µM
- concentration at 2 h [7, 13]: ~0.4 µM
- concentration at 2 h [7, 14]: ~100 nM and ~55 ng/mL
- concentration at 2 h [7, 15]: ~500 nM and ~234 ng/mL
- concentration at 2 h [8]: ~180 nM and ~91 ng/g
- brain permeability [8]: lower brain-permeability

SMILES: CC(C)c1nc(CN(C)C(=O)N[C@H](C(=O)N[C@@H](Cc2ccccc2)C[C@H](O)[C@H](Cc2ccccc2)NC(=O)OCc2cncs2)C(C)C)cs1 [DDL-751, ritonavir]
- IFN induction ([6]; at the concentration tested): did not produce IFN induction

SMILES: CCCCc1nc(Cl)c(CO)n1Cc1ccc(-c2ccccc2-c2nn[nH]n2)cc1 [losartan]
- IC50 (PL^pro): ~13 µM
- Cmax [5, 18]: ~500 nM

SMILES: O=C(O)c1cc(F)c2nc(N3[C@@H]4CC[C@H]3C[C@@H](OCc3c(-c5ccccc5OC(F)(F)F)noc3C3CC3)C4)sc2c1 [tropifexor]
- IC50 (PL^pro): ~6 µM
- Cmax [5, 18]: < 100 nM
